{
  "source": "patent US9422308B2",
  "about": "“Derivatives of docosahexaenoylethanolamide and uses thereof” (The United States of America, as represented by the …, priority 2012, dated 2016)",
  "experiment": "pharmacokinetics, plasma and brain, after IP dose in mice",
  "type": "in vivo",
  "details": "male C57BL/6 mice; for half-life: read-out: Terminal t1/2 (converted)",
  "protocol": "Each time point is […], with 11 time points=33 animals. Each time point was done in triplicate (N=3). The brain and plasma from each animal was analyzed.\nFormulation preparation: • IP: 5% DMAC+5% Solutol HS15+90% Saline • 50 mg/kg, 10 mL/kg\nAnalytical method: • Instrument: LCMSMS-6 (Agilent 6410, triple quadrupole) • Matrix: Mouse plasma and brain homogenate • Analyte(s): NCGC00248435-03 • Internal standard(s): Diclofenac • MS conditions: Positive, ESI • MRM detection • NCGC00248435-03: [M+H]+m/z 400.3→72.2 • Diclofenac: [M+H]+m/z 296.0→214.0\nFor plasma samples: An aliquot of 30 μL plasma sample was added with 100 μL ACN (including Diclofenac, 50 ng/mL) for protein precipitation. The mixture was vortexed for 2 min and centrifuged at 12000 rpm for 5 min. The 8 μL supernatant was injected into LC-MS/MS for analysis.\nFor brain samples: Brain sample was homogenized for 2 min with 3 volumes (v/w) of homogenizing solution. An aliquot of 30 μL brain homogenate sample was added with 100 μL ACN (including Diclofenac, 50 ng/mL) for protein precipitation. The mixture was vortexed for 2 min and centrifuged at 12000 rpm for 5 min. The 8 μL supernatant was injected into LC-MS/MS for analysis.\nThe IP dosing solution was prepared in 5% DMAC+5% SolutolHS15+90% Saline. Brain was homogenized with 3 volumes (v/w) of PBS (pH7.4) and then analyzed with LC-MS/MS. The Brain concentration was corrected with a dilution factor of 4 as following: Brain concentration=Brain homogenate conc.×4, assuming 1 g wet brain equals to 1 mL. BQL=Below quantifiable limit of 1 ng/mL for NCGC00248435-03 in male C57BL/6 plasma and brain homogenate samples. NA=Not available.",
  "note": "Several values for one entry are separate records, joined by “and”; a condition that tells them apart may be missing. Identical values can stand only once. Like-named read-outs stand apart in the source and are kept apart here.",
  "data": [
    {"smiles": "CC/C=C\\C/C=C\\C/C=C\\C/C=C\\C/C=C\\C/C=C\\CCC(=O)NCC(C)(C)O", "note": "[Compound 1, (4Z,7Z,10Z,13Z,16Z,19Z)—N-(2-hydroxy-2-methylpropyl)docosa-4,7,10,13,16,19-hexaenamide]", "values": [
      {"measurement": "concentration at 0.25 hr", "setting": "male, C57BL/6, mouse, plasma, ip, 50 mg/kg, plasma, 0.25 hr, read-out: plasma concentration Mean", "value": "5100 ng/mL and 12.8 µM"},
      {"measurement": "concentration at 0.5 hr", "setting": "male, C57BL/6, mouse, plasma, ip, 50 mg/kg, plasma, 0.5 hr, 3 animals, read-out: plasma Concentration Individual", "value": 5960, "unit": "ng/mL"},
      {"measurement": "concentration at 0.5 hr", "setting": "male, C57BL/6, mouse, plasma, ip, 50 mg/kg, plasma, 0.5 hr, read-out: plasma concentration Mean", "value": "5790 ng/mL and 14.5 µM"},
      {"measurement": "concentration at 1 hr", "setting": "male, C57BL/6, mouse, plasma, ip, 50 mg/kg, plasma, 1 hr, 3 animals, read-out: plasma Concentration Individual", "value": 4050, "unit": "ng/mL"},
      {"measurement": "concentration at 1 hr", "setting": "male, C57BL/6, mouse, plasma, ip, 50 mg/kg, plasma, 1 hr, read-out: plasma concentration Mean", "value": "3960 ng/mL and 9.91 µM"},
      {"measurement": "concentration at 2 hr", "setting": "male, C57BL/6, mouse, plasma, ip, 50 mg/kg, plasma, 2 hr, 3 animals, read-out: plasma Concentration Individual", "value": 1130, "unit": "ng/mL"},
      {"measurement": "concentration at 2 hr", "setting": "male, C57BL/6, mouse, plasma, ip, 50 mg/kg, plasma, 2 hr, read-out: plasma concentration Mean", "value": "1020 ng/mL and 2.56 µM"},
      {"measurement": "concentration at 3 hr", "setting": "male, C57BL/6, mouse, plasma, ip, 50 mg/kg, plasma, 3 hr, 3 animals, read-out: plasma Concentration Individual", "value": 321, "unit": "ng/mL"},
      {"measurement": "concentration at 3 hr", "setting": "male, C57BL/6, mouse, plasma, ip, 50 mg/kg, plasma, 3 hr, read-out: plasma concentration Mean", "value": "275 ng/mL and 688 nM"},
      {"measurement": "concentration at 4 hr", "setting": "male, C57BL/6, mouse, plasma, ip, 50 mg/kg, plasma, 4 hr, read-out: plasma concentration Mean", "value": "100 ng/mL and 250 nM"},
      {"measurement": "concentration at 8 hr", "setting": "male, C57BL/6, mouse, plasma, ip, 50 mg/kg, plasma, 8 hr, 3 animals, read-out: plasma Concentration Individual", "value": 1.83, "unit": "ng/mL"},
      {"measurement": "concentration at 8 hr", "setting": "male, C57BL/6, mouse, plasma, ip, 50 mg/kg, plasma, 8 hr, read-out: plasma concentration Mean", "value": "2.11 ng/mL and 5 nM"},
      {"measurement": "Kp", "setting": "mouse, brain and plasma, IP 50 mg/kg, read-out: AUCbrain/AUCplasma", "value": 1.05},
      {"measurement": "AUC(0-inf)", "setting": "mouse, brain, IP 50 mg/kg", "value": 8470, "unit": "ng·h/mL"},
      {"measurement": "Cmax", "setting": "mouse, brain, IP 50 mg/kg", "value": 4710, "unit": "ng/mL"},
      {"measurement": "Tmax", "setting": "mouse, brain, IP 50 mg/kg", "value": 30, "unit": "min"},
      {"measurement": "half-life", "setting": "mouse, brain, IP 50 mg/kg", "value": 47.6, "unit": "min"},
      {"measurement": "AUC(0-inf)", "setting": "mouse, plasma, IP 50 mg/kg", "value": 8080, "unit": "ng·h/mL"},
      {"measurement": "AUC(0-t)", "setting": "mouse, plasma, IP 50 mg/kg", "value": 8080, "unit": "ng·h/mL"},
      {"measurement": "Cmax", "setting": "mouse, plasma, IP 50 mg/kg", "value": 5790, "unit": "ng/mL"},
      {"measurement": "Tmax", "setting": "mouse, plasma, IP 50 mg/kg", "value": 30, "unit": "min"},
      {"measurement": "half-life", "setting": "mouse, plasma, IP 50 mg/kg", "value": 42.8, "unit": "min"},
      {"measurement": "plasma concentration Dose Normalized Mean", "setting": "plasma, 0.083 hr, IP 50 mg/kg", "value": 0.131},
      {"measurement": "plasma Concentration Individual", "setting": "plasma, 0.083 hr, IP 50 mg/kg, 3 animals, listed as NCGC00248435-03, 50 mg/kg", "value": "3063 ng/mL and 2707 ng/mL"},
      {"measurement": "plasma concentration Dose Normalized Mean", "setting": "plasma, 0.25 hr, IP 50 mg/kg", "value": 0.255},
      {"measurement": "plasma Concentration Individual", "setting": "plasma, 0.25 hr, IP 50 mg/kg, 3 animals, listed as NCGC00248435-03, 50 mg/kg", "value": "4892 ng/mL and 3849 ng/mL"},
      {"measurement": "plasma concentration Dose Normalized Mean", "setting": "plasma, 0.5 hr, IP 50 mg/kg", "value": 0.290},
      {"measurement": "plasma Concentration Individual", "setting": "plasma, 0.5 hr, IP 50 mg/kg, 3 animals, listed as NCGC00248435-03, 50 mg/kg", "value": "6378 ng/mL and 5036 ng/mL"},
      {"measurement": "plasma concentration Dose Normalized Mean", "setting": "plasma, 1 hr, IP 50 mg/kg", "value": 0.198},
      {"measurement": "plasma Concentration Individual", "setting": "plasma, 1 hr, IP 50 mg/kg, 3 animals, listed as NCGC00248435-03, 50 mg/kg", "value": "4574 ng/mL and 3252 ng/mL"},
      {"measurement": "plasma concentration Dose Normalized Mean", "setting": "plasma, 2 hr, IP 50 mg/kg", "value": 0.051},
      {"measurement": "plasma Concentration Individual", "setting": "plasma, 2 hr, IP 50 mg/kg, 3 animals, listed as NCGC00248435-03, 50 mg/kg", "value": "1064 ng/mL and 870 ng/mL"},
      {"measurement": "plasma concentration Dose Normalized Mean", "setting": "plasma, 3 hr, IP 50 mg/kg", "value": 0.014},
      {"measurement": "plasma Concentration Individual", "setting": "plasma, 3 hr, IP 50 mg/kg, 3 animals, listed as NCGC00248435-03, 50 mg/kg", "value": "255 ng/mL and 249 ng/mL"},
      {"measurement": "plasma concentration Dose Normalized Mean", "setting": "plasma, 4 hr, IP 50 mg/kg", "value": 0.005},
      {"measurement": "plasma Concentration Individual", "setting": "plasma, 4 hr, IP 50 mg/kg, 3 animals, listed as NCGC00248435-03, 50 mg/kg", "value": "78.4 ng/mL and 148 ng/mL and 72.9 ng/mL"},
      {"measurement": "plasma concentration Dose Normalized Mean", "setting": "plasma, 8 hr, IP 50 mg/kg", "value": 0.000},
      {"measurement": "plasma Concentration Individual", "setting": "plasma, 8 hr, IP 50 mg/kg, 3 animals, listed as NCGC00248435-03, 50 mg/kg", "value": "2.94 ng/mL and 1.55 ng/mL"},
      {"measurement": "plasma concentration Dose Normalized Mean", "setting": "plasma, 12 hr, IP 50 mg/kg", "value": "BQL (Below quantifiable limit of 1 ng/mL for NCGC00248435-03 in male C57BL/6 plasma and brain homogenate samples)"},
      {"measurement": "plasma concentration Mean", "setting": "plasma, 12 hr, IP 50 mg/kg", "value": "BQL (Below quantifiable limit of 1 ng/mL for NCGC00248435-03 in male C57BL/6 plasma and brain homogenate samples)"},
      {"measurement": "plasma Concentration Individual", "setting": "plasma, 12 hr, IP 50 mg/kg, 3 animals", "value": "BQL (Below quantifiable limit of 1 ng/mL for NCGC00248435-03 in male C57BL/6 plasma and brain homogenate samples)"},
      {"measurement": "plasma concentration Dose Normalized Mean", "setting": "plasma, 24 hr, IP 50 mg/kg", "value": "BQL (Below quantifiable limit of 1 ng/mL for NCGC00248435-03 in male C57BL/6 plasma and brain homogenate samples)"},
      {"measurement": "plasma concentration Mean", "setting": "plasma, 24 hr, IP 50 mg/kg", "value": "BQL (Below quantifiable limit of 1 ng/mL for NCGC00248435-03 in male C57BL/6 plasma and brain homogenate samples)"},
      {"measurement": "plasma Concentration Individual", "setting": "plasma, 24 hr, IP 50 mg/kg, 3 animals", "value": "BQL (Below quantifiable limit of 1 ng/mL for NCGC00248435-03 in male C57BL/6 plasma and brain homogenate samples)"}
    ]}
  ]
}
